Laboratory results taken from patent US12031986B2, “Polypeptide for targeting recognition of immune cells and application thereof” (KEYANGLE LIFE TECHNOLOGY CO., LTD., priority 2019, dated 2024).
“Also recorded” adds a separate entry of the source. No end group written: not given here. K(rhodamine) = not defined here; code X = not defined here

System: mouse peritoneal macrophages
Test: In vivo fluorescent labeling of macrophages in a mouse abdominal cavity
Conditions: for in vivo labeling / recognition of mouse peritoneal macrophages by the fluorescent probe: probe injected into abdominal cavity, cells extracted after 4 hours, fluorescence microscope
Method: Dilute 300 μL of 50 μM AK9 fluorescent probe solution with serum-free DMEM incomplete medium to obtain 1 mL of solution, then inject into the abdominal cavities of 5-8 week old Kunming mice. After 4 hours, inject 5 mL of 1×PBS, and massage. After 10 minutes, sacrifice the mice by cervical vertebra dislocation. Cut the abdominal cavity skin of the mice, pierce the abdominal wall muscle by syringe, and extract the fluid in the abdominal cavity of the mice. Centrifuge the extracted peritoneal fluid at 1000 rpm for 5 min, wash twice with 1×PBS. Double-stain an appropriate number of cells with Alexa Fluor 488 anti-mouse F4/80 antibody (Biolegend). Add the stained cells to a 96-well plate and stain with a nuclear dye Nucblue (Invitrogen). Observe under EVOS FL Auto fluorescence microscope (Life Technologies, 20×, light source 50%, exposure 200 ms, gain 10) after the suspended cells were settled down at the bottom of the plate.
Table 1 lists probes, which contain the polypeptide fragments from the C-terminal fragments of Triokinases/FMN cyclases of different species and were prepared by a similar process as described in Examples 1 and 2, and in vivo imaging results of mouse peritoneal macrophages using these probes.

Substance | in vivo labeling / recognition of mouse peritoneal macrophages by the fluorescent probe | labeling on the same cells, probe and F4/80 antibody (in vivo probe labeling, then F4/80 antibody double-stain of extracted peritoneal cells)
AAILRAILEVLQS-Y (AAILRAILEVLQSY; also: C-terminal Y: reporter or Cys/Lys + reporter (rhodamine or FITC), not given here; listed as Homo sapiens) [AK14, Y = reporter or cysteine/lysine + reporter] | can effectively recognize macrophages in vivo; also recorded: can be labeled | 
AILEVLQS-Y (AILEVLQS-{K(rhodamine)}; reading uncertain) [AK9, Human Triokinase/FMN cyclase C-terminal fragment; Y is lysine + rhodamine fluorescent labeling group on the lysine side chain] | can effectively recognize macrophages in vivo | labeled on the same cells
AVLEVLQG-Y (AVLEVLQGY; also: reporter type not given here) [Hx-AVGK9, Y = reporter or cysteine/lysine + reporter] | can be labeled | 
ILRAILEVLQS-Y (ILRAILEVLQSY; also: reporter type not given here; listed as Homo sapiens) [IK12, Y = reporter or cysteine/lysine + reporter] | can effectively recognize macrophages in vivo; also recorded: can be labeled | 
LQPDPGAVAAAAVLRAVLEGLQG-Y (LQPDPGAVAAAAVLRAVLEGLQGY; also: reporter type not given here; listed as Gallus gallus) [LK24, Y = reporter or cysteine/lysine + reporter] | can effectively recognize macrophages in vivo; also recorded: can also be labeled | 
LQPDPSAVAAAAVLRAVLEVLQG-Y (LQPDPSAVAAAAVLRAVLEVLQGY; also: reporter type not given here) [Cx-LK24, Y = reporter or cysteine/lysine + reporter] | can be labeled | 
LRAILEVLQS-Y (LRAILEVLQSY; also: reporter type not given here; listed as Homo sapiens) [LK11, Y = reporter or cysteine/lysine + reporter] | can effectively recognize macrophages in vivo; also recorded: can be labeled | 
PGAVAAAAILRAILEVLQS-Y (PGAVAAAAILRAILEVLQSY; also: reporter type not given here; listed as Homo sapiens) [PK20, Y = reporter or cysteine/lysine + reporter] | can effectively recognize macrophages in vivo; also recorded: can be labeled | 
VLRAVLEVLQG-Y (VLRAVLEVLQGY; also: reporter type not given here) [Hx-VVGK12, Y = reporter or cysteine/lysine + reporter] | can be labeled | 
X-DQPDPGAVAAAAIFRAILEVLQTKAA ({code X}-DQPDPGAVAAAAIFRAILEVLQTKAA; reading uncertain; also: reporter type not given here, printed as X-DQPDPGAVAAAAIFRAILEVLQTKAA; listed as Rattus norvegicus) [r-KA27, X = reporter or cysteine/lysine + reporter] | can effectively recognize macrophages in vivo; also recorded: can be labeled | 
X-DQPDPGAVAAAAILRAILEVLQSQGA ({code X}-DQPDPGAVAAAAILRAILEVLQSQGA; reading uncertain; also: reporter type not given here, printed as X-DQPDPGAVAAAAILRAILEVLQSQGA; listed as Sus scrofa) [b-KA27, X = reporter or cysteine/lysine + reporter] | can effectively recognize macrophages in vivo; also recorded: can be labeled | 
